Results published in patent publication US7964594B1, “Amino oxazine derivatives” (Hoffmann-La Roche Inc., priority 2009, dated 2011).

Target: T1, BACE2 (Rattus norvegicus, UniProt Q6IE75)
T1 construct: endogenous cellular BACE2 in the Ins1e rat cell line; endogenous in cells; host or cells: INS-TMEM27 (INS1e-derived rat insulinoma cell line with doxycycline-inducible full-length hTMEM27)
T1 sequence (Q6IE75 63-514): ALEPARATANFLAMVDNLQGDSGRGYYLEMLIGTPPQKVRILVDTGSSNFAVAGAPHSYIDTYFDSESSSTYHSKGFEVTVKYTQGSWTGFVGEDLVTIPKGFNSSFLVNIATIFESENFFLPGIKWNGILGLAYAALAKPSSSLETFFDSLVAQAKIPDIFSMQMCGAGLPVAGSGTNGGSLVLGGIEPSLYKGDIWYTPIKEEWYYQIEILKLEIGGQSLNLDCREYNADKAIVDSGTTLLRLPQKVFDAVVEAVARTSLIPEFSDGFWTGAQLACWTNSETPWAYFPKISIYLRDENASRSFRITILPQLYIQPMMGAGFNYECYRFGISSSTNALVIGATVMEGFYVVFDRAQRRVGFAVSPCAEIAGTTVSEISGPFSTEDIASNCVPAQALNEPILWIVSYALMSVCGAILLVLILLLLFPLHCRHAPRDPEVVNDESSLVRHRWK
Experiment: Assay for BACE inhibition by measuring cellular TMEM27 cleavage (INS-TMEM27 cells, ELISA of shed TMEM27)
Format: cell-based
Conditions: inhibition of human TMEM27 cleavage by endogenous cellular BACE2 in Ins1e rat cell line; ELISA of culture medium
Excerpt: Assay for BACE Inhibition by Measuring Cellular TMEM27 Cleavage
The assay uses the principle of inhibition of human TMEM27 cleavage by endogenous cellular BACE2 in the Ins1e rat cell line and shedding from the cell surface into the culture medium, followed by detection in an ELISA assay. Inhibition of BACE2 prevents the cleavage and shedding in a dose-dependent manner.
The stable cell line “INS-TMEM27” represents an INS1e-derived cell line with inducible expression (using the TetOn system) of full-length hTMEM27 in a doxycycline-dependent manner. The cells were cultured throughout the experiment in RPMI1640+Glutamax (Invitrogen) Penicillin/Streptomycin, 10% Fetal bovine serum, […], […], 100 micrograms/ml G418 and 100 microgram/ml hygromycin and were grown in adherent culture at 37° C. in a standard CO2 cell culture incubator.
INS-TMEM27 cells were seeded in 96-well plates. After 2 days in culture, BACE2 inhibitor was added in a range of concentrations as required by the assay and after a further two hours, doxycycline was added to a final concentration of 500 ng/ml. The cells were incubated for a further 46 hours and the supernatant harvested for detection of shed TMEM27.
An ELISA assay (using a pair of mouse anti-human-TMEM27 antibodies, raised against the extracellular domain of TMEM27) was used for detection of TMEM27 in the culture medium. An IC50 for BACE2 inhibition was calculated using the ELISA readout for each inhibitor concentration with standard curve-fitting software XLfit (IDBS) for the Excel spreadsheet program.

| SMILES | IC50 [nM] |
| --- | --- |
| C[C@@]1(c2cc(NC(=O)C(F)C(F)(F)F)ccc2F)CCOC(N)=N1 (stereo partly drawn) [Example 45, N-[3-((S)-2-Amino-4-methyl-5,6-dihydro-4H-[1,3]oxazin-4-yl)-4-fluoro-phenyl]-2,3,3,3-tetrafluoro-propionamide] | 400 |
| COc1ccc(C(=O)Nc2ccc(F)c([C@]3(C)CCOC(N)=N3)c2)nc1 [Example 30, 5-Methoxy-pyridine-2-carboxylic acid [3-((S)-2-amino-4-methyl-5,6-dihydro-4H-[1,3]oxazin-4-yl)-4-fluoro-phenyl]-amide] | 12 |
| C[C@@]1(c2cc(NC(=O)c3ncccc3-c3ccccc3)ccc2F)CCOC(N)=N1 [Example 12, 3-Phenyl-pyridine-2-carboxylic acid [3-((S)-2-amino-4-methyl-5,6-dihydro-4H-[1,3]oxazin-4-yl)-4-fluoro-phenyl]-amide] | 34 |
| CC1(C(=O)Nc2ccc(F)c([C@]3(C)CCOC(N)=N3)c2)COC1 [Example 62, 3-Methyl-oxetane-3-carboxylic acid [3-((S)-2-amino-4-methyl-5,6-dihydro-4H-[1,3]oxazin-4-yl)-4-fluoro-phenyl]-amide] | 9130 |
| COc1cccnc1C(=O)Nc1ccc(F)c([C@]2(C)CCOC(N)=N2)c1 [Example 27, 3-Methoxy-pyridine-2-carboxylic acid [3-((S)-2-amino-4-methyl-5,6-dihydro-4H-[1,3]oxazin-4-yl)-4-fluoro-phenyl]-amide] | 23 |
| CC[C@@]1(c2cc(NC(=O)c3ccc(Cl)s3)ccc2F)CCOC(N)=N1 [Example 21] | 240 |
| C[C@@]1(c2cc(NC(=O)c3ncccc3F)ccc2F)CCOC(N)=N1 [Example 6, 3-Fluoro-pyridine-2-carboxylic acid [3-((S)-2-amino-4-methyl-5,6-dihydro-4H-[1,3]oxazin-4-yl)-4-fluoro-phenyl]-amide] | 19 |
| Cc1nc(C(=O)Nc2ccc(F)c([C@]3(C)CCOC(N)=N3)c2)co1 [Example 8] | 19 |
| C[C@@]1(c2cc(NC(=O)c3ncccc3OCC(F)(F)F)ccc2F)CCOC(N)=N1 [Example 60, (S)—N-(3-(2-Amino-4-methyl-5,6-dihydro-4H-1,3-oxazin-4-yl)-4-fluorophenyl)-3-(2,2,2-trifluoroethoxy)picolinamide] | 143 |
| CC[C@@]1(c2cc(NC(=O)c3coc(C)n3)ccc2F)CCOC(N)=N1 [Example 24] | 1 |
| CC[C@@]1(c2cc(NC(=O)c3ccccn3)ccc2F)CCOC(N)=N1 [Example 18, Pyridine-2-carboxylic acid [3-((S)-2-amino-4-ethyl-5,6-dihydro-4H-[1,3]oxazin-4-yl)-4-fluoro-phenyl]-amide] | 35 |
| C[C@@]1(c2cc(NC(=O)c3ccc(C(F)(F)F)cn3)ccc2F)CCOC(N)=N1 [Example 5, 5-Trifluoromethyl-pyridine-2-carboxylic acid [3-((S)-2-amino-4-methyl-5,6-dihydro-4H-[1,3]oxazin-4-yl)-4-fluoro-phenyl]-amide] | 89 |
| C[C@@]1(c2cc(NC(=O)CC(F)(F)F)ccc2F)CCOC(N)=N1 [Example 59, N-[3-((S)-2-Amino-4-methyl-5,6-dihydro-4H-[1,3]oxazin-4-yl)-4-fluoro-phenyl]-3,3,3-trifluoro-propionamide] | 830 |

Further lines, results first:

| IC50 [nM] | SMILES |
| --- | --- |
| 14 | C[C@]1(c2cc(NC(=O)c3ncc(F)cc3F)ccc2F)N=C(N)OCC12CC2 [Example 49, (S)—N-(3-(6-Amino-8-methyl-5-oxa-7-azaspiro[2.5]oct-6-en-8-yl)-4-fluorophenyl)-3,5-difluoropicolinamide] |
| 350 | Cc1ccsc1C(=O)Nc1ccc(F)c([C@]2(C)CCOC(N)=N2)c1 [Example 34] |
| 11 | C[C@@]1(c2cc(NC(=O)c3ncc(F)cc3Cl)ccc2F)CCOC(N)=N1 [Example 35] |
| 4 | C[C@@]1(c2cc(NC(=O)c3ncc(Cl)cc3Cl)ccc2F)CCOC(N)=N1 [Example 1, 3,5-Dichloro-pyridine-2-carboxylic acid [3-((S)-2-amino-4-methyl-5,6-dihydro-4H-[1,3]oxazin-4-yl)-4-fluoro-phenyl]-amide] |
| 8 | CC[C@@]1(c2cc(NC(=O)c3ccc(Cl)cn3)ccc2F)CCOC(N)=N1 [Example 19, 5-Chloro-pyridine-2-carboxylic acid [3-((S)-2-amino-4-ethyl-5,6-dihydro-4H-[1,3]oxazin-4-yl)-4-fluoro-phenyl]-amide] |
| 52 | C[C@]1(c2cc(NC(=O)c3ccc(C#N)cn3)ccc2F)N=C(N)OCC12CC2 [Example 41, 5-Cyano-pyridine-2-carboxylic acid [3-((S)-6-amino-8-methyl-5-oxa-7-aza-spiro[2.5]oct-6-en-8-yl)-4-fluoro-phenyl]-amide] |
| 6 | C[C@]1(c2cc(NC(=O)c3ncc(Cl)cc3Cl)ccc2F)N=C(N)OCC12CC2 [Example 53, (S)—N-(3-(6-Amino-8-methyl-5-oxa-7-azaspiro[2.5]oct-6-en-8-yl)-4-fluorophenyl)-3,5-dichloropicolinamide] |
| 4.5 | Cc1ccc(C(=O)Nc2ccc(F)c([C@]3(C)CCOC(N)=N3)c2)nc1 [Example 15] |
| 7.1 | C[C@]1(c2cc(NC(=O)c3ncc(Cl)cn3)ccc2F)N=C(N)OCC12CC2 [Example 44, 5-Chloro-pyrimidine-2-carboxylic acid [3-((S)-6-amino-8-methyl-5-oxa-7-aza-spiro[2.5]oct-6-en-8-yl)-4-fluoro-phenyl]-amide] |
| 7 | CC[C@@]1(c2cc(NC(=O)c3ncc(Cl)cc3Cl)ccc2F)CCOC(N)=N1 [Example 22] |
| 464 | C[C@@]1(c2cc(NC(=O)c3n[nH]cc3Cl)ccc2F)CCOC(N)=N1 [Example 64] |
| 5.1 | Cc1cc(Cl)cnc1C(=O)Nc1ccc(F)c([C@@]2(C)N=C(N)OCC23CC3)c1 [Example 38, 5-Chloro-3-methyl-pyridine-2-carboxylic acid [3-((S)-6-amino-8-methyl-5-oxa-7-aza-Spiro[2.5]oct-6-en-8-yl)-4-fluoro-phenyl]amide] |
| 143 | C[C@@]1(c2cc(NC(=O)c3cc(Cl)ccn3)ccc2F)CCOC(N)=N1 [Example 9] |
| 6410 | Cc1c(C(=O)Nc2ccc(F)c([C@@]3(C)N=C(N)OCC34CC4)c2)noc1Cl [Example 57, (S)—N-(3-(6-Amino-8-methyl-5-oxa-7-azaspiro[2.5]oct-6-en-8-yl)-4-fluorophenyl)-5-chloro-4-methylisoxazole-3-carboxamide] |
| 10 | C[C@@]1(c2cc(NC(=O)c3ccc(Cl)cn3)ccc2F)CCOC(N)=N1 [Example 2, 5-Chloro-pyridine-2-carboxylic acid [3-((S)-2-amino-4-methyl-5,6-dihydro-4H-[1,3]oxazin-4-yl)-4-fluoro-phenyl]-amide] |
| 210 | C[C@]1(c2cc(NC(=O)c3ccc(OC(F)F)cn3)ccc2F)N=C(N)OCC12CC2 [Example 42, 5-Difluoromethoxy-pyridine-2-carboxylic acid [3-((S)-6-amino-8-methyl-5-oxa-7-aza-Spiro[2.5]oct-6-en-8-yl)-4-fluoro-phenyl]-amide] |
| 190 | C[C@@]1(c2cc(NC(=O)c3cnc(Cl)cn3)ccc2F)CCOC(N)=N1 [Example 14] |
| 9 | CC[C@@]1(c2cc(NC(=O)c3ncc(Cl)cc3C)ccc2F)CCOC(N)=N1 [Example 23] |
